The target in assay [1] is Uracil-DNA glycosylase (Human herpesvirus 1) (UniProt P10186). In words: Inhibitory potency against HSV-1 Uracil-DNA glycosylase.
Assay [2] shares this target. Description: Inhibitory potency against HSV-1 UDG (Herpes Simplex virus type-I Uracil DNA glycosylase).

pIC50: −log10 of the molar value. Where only a bound is given, the exact number is not on record here.

Chain of Uracil-DNA glycosylase (Human herpesvirus 1) (P10186 whole entry, looked up): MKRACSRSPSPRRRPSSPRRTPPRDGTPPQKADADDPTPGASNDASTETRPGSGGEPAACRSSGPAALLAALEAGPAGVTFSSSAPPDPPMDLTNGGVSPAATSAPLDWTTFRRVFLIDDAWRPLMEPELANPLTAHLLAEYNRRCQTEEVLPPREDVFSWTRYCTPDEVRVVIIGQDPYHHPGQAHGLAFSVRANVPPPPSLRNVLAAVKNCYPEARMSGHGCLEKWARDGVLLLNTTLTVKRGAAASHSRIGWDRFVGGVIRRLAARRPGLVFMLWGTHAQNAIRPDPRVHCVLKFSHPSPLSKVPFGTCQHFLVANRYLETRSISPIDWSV

Regarding `CCCCCCCCc1ccc(Nc2cc(=O)[nH]c(=O)n2CCO)cc1` [1-(2-Hydroxy-ethyl)-6-(4-octyl-phenylamino)-1H-pyrimidine-2,4-dione], in assay [1], the pIC50 (in general, the IC50 on a negative log10 scale, so that one unit is a factor of ten) was 5.00. For `CCCCCCCCc1ccc(Nc2cc(=O)[nH]c(=O)n2CCOC)cc1` [1-(2-Methoxy-ethyl)-6-(4-octyl-phenylamino)-1H-pyrimidine-2,4-dione], the pIC50 in assay [1] is 4.82.

For the molecule `CCCCCCCCCCc1ccc(Nc2cc(=O)[nH]c(=O)[nH]2)cc1` [6-(4-Decyl-phenylamino)-1H-pyrimidine-2,4-dione], the pIC50 in assay [1] is 4.46.

As to `CCc1ccc(Nc2cc(=O)[nH]c(=O)[nH]2)cc1` [6-(4-Ethyl-phenylamino)-1H-pyrimidine-2,4-dione], the pIC50 in assay [2] is 3.30.

Molecule `CCCCCCc1ccc(Nc2cc(=O)[nH]c(=O)n2CCO)cc1` [6-(4-Hexyl-phenylamino)-1-(2-hydroxy-ethyl)-1H-pyrimidine-2,4-dione] gave a pIC50 in assay [2] of 4.70. `CCCCCCc1ccc(Nc2cc(=O)[nH]c(=O)n2CCOC)cc1` [6-(4-Hexyl-phenylamino)-1-(2-methoxy-ethyl)-1H-pyrimidine-2,4-dione] gave a pIC50 in assay [2] of less than 4.00. For `CCCCCCc1ccc(Nc2cc(=O)[nH]c(=O)n2CCCO)cc1` [6-(4-Hexyl-phenylamino)-1-(3-hydroxy-propyl)-1H-pyrimidine-2,4-dione], the pIC50 in assay [2] is 4.05. Same read-out and setting: the figure for `CCCCCCc1ccc(Nc2cc(=O)[nH]c(=O)n2CCCOC)cc1` [6-(4-Hexyl-phenylamino)-1-(3-methoxy-propyl)-1H-pyrimidine-2,4-dione] is less than 4.00.

As to `CCCCCCc1ccc(Nc2cc(=O)[nH]c(=O)[nH]2)cc1` [6-(4-Hexyl-phenylamino)-1H-pyrimidine-2,4-dione], in assay [2], the pIC50 was 4.52. In turn, `CCCCCCOc1ccc(Nc2cc(=O)[nH]c(=O)[nH]2)cc1` [6-(4-Hexyloxy-phenylamino)-1H-pyrimidine-2,4-dione] had a pIC50 in assay [2] of 4.52.

As for `CCCCCCCCc1ccc(Oc2cc(=O)[nH]c(=O)[nH]2)cc1` [6-(4-Octyl-phenoxy)-1H-pyrimidine-2,4-dione], in assay [1], the pIC50 was 3.82.

Molecule `CCCCCCCCc1ccc(Nc2cc(=O)[nH]c(=O)[nH]2)cc1` [6-(4-Octyl-phenylamino)-1H-pyrimidine-2,4-dione] had a pIC50 in assay [1] of 5.10. The molecule `CCCCCCCCOc1ccc(Nc2cc(=O)[nH]c(=O)[nH]2)cc1` [6-(4-Octyloxy-phenylamino)-1H-pyrimidine-2,4-dione] gave a pIC50 in assay [1] of 4.60.

The values above are taken from BindingDB's records for doi:10.1021/jm980718d (University of Massachusetts Medical Center, 1999).
